What was measured:
[1] = test system: adipocytes; assay: Observation of adipocytes in abdominal subcutaneous fats (H&E, optical microscope); format: in vivo, Albino C57BL/6 mice; settings: 0.2 ml s.c. into abdomen of obese mice, FIG. 9
Procedure: (§1) Albino C57BL/6 mice (4 weeks old) were fed with high fat diet (Research diet, 60% kcal lipid) to induce a high degree of obesity. Then, after 24 and 48 hours, 0.2 ml of saline solution (negative control group), injection compositions of Table 1, Lipobean, 2.5% DC were injected subcutaneously into the abdomen of the mice, respectively. Eight (8) days after the administration was completed, the mice were sacrificed.
The abdomen of the sacrificed mice was incised, followed by rapid extraction of subcutaneous fats and their fixation in 4% formaldehyde solution. After fixation, washing & dehydrating were conducted and treated with paraffin solution to prepare paraffin blocks. Then, those paraffin blocks were thin-sliced in the thickness of 4 μm which were then dyed with hematoxylin & eosin for an optical microscopic observation.
The size of adipocytes in the saline control group and the PC injection-administered group were measured.

[2] = test system: Sprague-Dawley rats; assay: Histological test of the soles (hematoxylin eosin); format: in vivo; settings: 4 hours after administration, FIG. 3
Text: Four (4) hours after the above described administration, rats were sacrificed of which soles were removed and their skins were incised and fixated in 10% formalin solution. Then, they were dyed in hematoxylin eosin solution to observe their morphological changes.

[3] = test system: Prostaglandin E2 (PGE2); assay: PGE2 Assay on hind feet tissue samples; format: in vivo, mice; settings: FIG. 7
Procedure: Prostaglandin E2 (PGE2) in the hind feet tissue samples of test animals in phosphatidylcholine (PC)-containing injection-administered test groups and sodium deoxycholate (DC)-administered group in various concentrations (PC 2.5%, PC 5%, DC 2.5%, PC 5%+DC 2.5%) was measured with PGE2 Assay (R&D System Inc., Minneapolis, USA). During cultivation, PGE2s in the hind feet tissue samples bound competitively with horse radish peroxidase (HRP)-labeled PGE2 to their mouse monoclonal antibodies. Unbound materials were removed by using washing buffer, while substrate solution was added to each well and left at room temperature with sunlight blocked. Then, stop solution was added, followed by measuring absorption value at 450 nm.

[4] = test system: Myeloperoxidase (MPO) activity; assay: MPO Activity Colorimetric Assay on hind feet tissue samples; format: in vivo, mice; settings: FIG. 4; comparison of groups
Procedure: Myeloperoxidase (MPO) activity was measured by using MPO Activity Colorimetric Assay Kit (BioVision, USA). The tissue samples of the hind feet of test animals in phosphatidylcholine (PC)-containing injection-administered test groups and sodium deoxycholate (DC)-administered group in various concentrations (PC 2.5%, PC 5%, DC 2.5%, PC 5%+DC 2.5%) were mixed in 4 times MPO assay buffer and centrifuged at 12,000 rpm for 10 minutes, followed by diluting each tissue sample with 25 μl of MPO assay buffer, respectively. The diluted samples were placed into standard, background sample of 96-well plate, while dividing reaction mix and background into their corresponding wells and cultivating at 25° C. for 120 minutes. Then, stop mix was added and left for 10 minutes. Subsequently, TNB reagent was added to equalize the total amount of each well to 150 μl, followed by sun blocking with aluminum foils and 10 minutes later measuring absorption value at 412 nm.

[5] = test system: Albino C57BL/6 mice; assay: Determination of tissue necrosis through visual inspection after subcutaneous abdominal injection; format: in vivo; settings: 8 days after administration; for Tissue necrosis at the injected area (visual inspection): 0.2 ml s.c. into abdomen of obese mice, FIG. 8
Procedure: as §1
Visual inspection was conducted on the subcutaneously injected areas of the sacrificed mice.

[6] = test system: Sprague-Dawley rats; assay: Measuring the thickness of the soles of the hind feet after injection (edema, erythema); format: in vivo
Procedure: 0.1 ml of the injectable compositions of the above Table 1, Lipobean (purchased from Ami Pharm Co., Ltd.; positive control) or 2.5% sodium deoxycholate (hereinafter, “DC”; saline solution was used as a solvent) were injected into the soles of the hind feet of 6 week-old, male Sprague-Dawley rats (weight: 170-200 g), respectively. The thickness of the soles was measured by using calipers at 1, 2, 3, and 4 hours after injection, while test performers were not aware of the order or the purpose of tests (i.e. blind study).

sodium deoxycholate [DC 2.5%]
Inflammation in abdominal subcutaneous fat (histology) [1]: greater degree of inflammation than other groups
Lipolysis in abdominal subcutaneous fat (histology) [1]: Almost no lipolysis effect
Edema and neutrophils in sole tissue (histology) [2]: both edema and neutrophils
Level of PGE2 relative to phosphatidylcholine (PC)-administered test groups [3]: ≥ 2 times
MPO activity in hind feet tissue [4]: overall higher MPO activity
Tissue necrosis at the injected area (visual inspection) ([5]; listed as 2.5% DC): severe necrosis with perforation in the skin
Tissue necrosis at the injected area (visual inspection) ([5]; listed as DC): severe tissue necrosis with perforation and fibrosis
Fibrosis (autopsy) ([5]; 0.2 ml s.c. into abdomen): fibrosis was spread to the surrounding tissues
Measurement of the thickness of the feet ([6]; 0 h, 0.1 ml injected into soles of hind feet, calipers): 0.324
Measurement of the thickness of the feet ([6]; 1 h after injection, 0.1 ml into soles of hind feet): 0.720
Measurement of the thickness of the feet ([6]; 2 h after injection, 0.1 ml into soles of hind feet): 0.706
Measurement of the thickness of the feet ([6]; 3 h after injection, 0.1 ml into soles of hind feet): 0.682
Measurement of the thickness of the feet ([6]; 4 h after injection, 0.1 ml into soles of hind feet): 0.625

Reference: patent publication US9474765B2, “Composition for lipolysis, containing phosphatidylcholine, and preparation method therefor” (AMI Pharm Co., Ltd., priority 2013, dated 2016)
